Assays:
[1] = biological target: T1, PUP1 nuclear base transporter (Arabidopsis thaliana, UniProt Q9FZ96, S63G); format: cell-based; details: for Transport of cytokinin by PUP1: 3H-labelled cytokinins
T1 construct: The PUP1 protein expressed by the yeast strain MG887ura3^−::pFL61-PUP1; expressed in transfected cells; host or cells: Saccharomyces cerevisiae MG887ura3- (fcy2), plasmid pFL61-PUP1
Protocol: The uptake was set temporarily at a concentration of 100 μM trans-zeatin. In this case PUP1 was expressed under control of the yeast ATPase promoter PMA1 in the vector pDR195 (Rentsch et al., 1995, FEBS Left. 370, […]) in the mutant MG877ura3^−::(FCY). The empty vector (FCY2pDR195) served as control.
(§1) For measuring the rate of uptake the yeast strains MG887ura3^−::pFL61, MG887ura3^−::pFL61-PUP1 and their original strain Σ1278b (Dubois & Grenson, 1979, Mol. Gen. Genet. 175, 67–76) were cultured in complete medium (YPD) without uracil and with 2% glucose as carbon source up to an OD600 of 0.6 at 28° C. The cells were harvested at 3000 g, washed twice with water and brought to an OD600 of 12 with sodium phosphate buffer (100 mM, pH 4.5), 1% glucose. The cell suspension was stored in 100 μl portions on ice up to the beginning of the uptake measurements. Before the start of the uptake measurements the cells were pre-incubated at 30° C. for 2 minutes. The reaction was then started, by which 100 μl of radioactively labelled substrate solution was added to 100 μl cell suspension. The reaction mixture was incubated at 30° C. and after 30, 60, 120 and 180 seconds in each case 50 μl of suspension was withdrawn and placed in 4 ml of ice-cold water (in measurements over 180 seconds more cell suspension and substrate solution were correspondingly added). The cells were absorbed on to glass fibre filters and washed with 4 ml of ice-cold water. The radioactivity on the filters was finally ascertained in a liquid scintillation counter.
The uptake experiments were carried out with ^3H-labelled zeatine in MG887ura3^− as for adenine. To start the reaction 87.3Bq/μl of the radioactive substrate was added to a total concentration of 100 μM trans-zeatine.

[2] = biological target: T1, PUP1 nuclear base transporter; test: Influence of inhibitors on PUP1-mediated adenine or cytosine uptake in yeast strain MG887ura3-::pFL61-PUP1; format: cell-based; details: for Relative adenine uptake / Relative cytosine uptake: added five minutes before measurement, without inhibitor = 100; for Effect on PUP1-mediated adenine or cytosine uptake: statement in words
Protocol: as §1
(§2) Substrate solution: For the substrate solution what is concerned is a 100 mM sodium phosphate buffer pH 4.5 with 1% glucose and 9.25 Bq/μl of radioactively labelled substrate (25–100 μM [^14C] adenine or [^14C] cytosine). In addition the substrate solution contains the unlabelled substrate, possible inhibitors and competitors in double end-concentration. For estimation of the optimum pH the pH value of the sodium phosphate buffer is also changed. When the influence of glucose on the uptake rate is measured neither the cell suspension nor the substrate solution contains glucose. Glucose is only added after starting the uptake measurements at the commencement of measuring at an end-concentration of 1%.
The influence of various inhibitors on the adenine or cytosine uptake mediated by the PUP1 nuclear base transporter in the yeast strain MG887ura3^−::pFL61-PUP1 is indicated in Table 2. The inhibitors were added to the cells five minutes before beginning the measurements. […] This may be taken as a clear indication of a secondarily active proton-associated uptake mechanism.

[3] = biological target: T2, PUP1 nuclear base transporter (Arabidopsis thaliana, UniProt Q9FZ96); test: Uptake of radioactively labelled adenine and cytosine by yeast strain MG887ura3-::pFL61-PUP1; format: cell-based; details: initial concentration medium 200 μM; intracellular, cell volume estimated as four times the dry weight
T2 construct: The PUP1 protein expressed by the yeast strain MG887ura3^−::pFL61-PUP1; expressed in transfected cells; host or cells: Saccharomyces cerevisiae MG887ura3- (fcy2), plasmid pFL61-PUP1
Protocol: as §1, §2
(§3) In Table 1 the uptake of radioactively labelled adenine and cytosine mediated by the PUP1 nuclear base transporter is indicated by the yeast strain MG887ura3^−::pFL61-PUP1. For calculation of the intracellular concentration the cell volume is estimated as four times the dry weight (Ninnemann et al., 1994, EMBO J. 15, 3464–3471). The uptake occurs against a concentration gradient.

[4] = biological target: T1, PUP1 nuclear base transporter; test: as above; format: cell-based
Protocol: as §1, §2, §3

[5] = biological target: T3, PUP1 (Arabidopsis thaliana, UniProt Q9FZ96, S63G); test: Growth of yeast strain DM734-284D on adenosine minimal medium (adenosine transport complementation); format: cell-based; set-up: PUP1 was expressed under control of the yeast ATPase promoter PMA1 in the vector pDR195; expressed in transfected cells; host or cells: Saccharomyces cerevisiae MG887ura3- (A5, A8) or DM734-284D (A7), construct pDR195PUP1; details: minimal medium with 150 μM adenosine instead of adenine; after 3 days
From the text: The Saccharomyces cerevisiae strain DM734-284D (genotype: ade8-18, ade2-1, arg-4-16, leu2-17, trp1-1, lys2, ura3: Yeast Genetic Stock Center) was used for growth studies. This yeast strain owing to mutations at the gene loci ade 8-18 and ade 2-1 is not itself in a position to synthesize adenine. […] This adenine is taken up via the purine/cytosine transporter FCY2 of the yeast. The DM734-284D strain is however still in a position to grow in medium containing adenosine instead of adenine, provided adenosine transport in the yeast cells is mediated by an adenosine transporter inserted by genetic engineering.
In order to check whether PUP1 mediates the transport of adenosine, the strain DM734-284D was transformed according to the standard procedure for yeast transformation (Dohmen et al., 1991, Yeast 7,691–692) with the constructs pDR195PUP1 and pDR195 as controls (Rentsch et al., 1995, FEBS Lett. 370, […]). For final checking of the transformation the early stages of transformation were plated on minimal medium containing 150 μM adenine and the amino acids arginine, leucine, tryptophane (each 60 mg/l) and lysine (70 mg/l) necessary for growth. Uracil served as transformation marker. Three independent positive clones of the control and the PUP1-expressing clone were plated on minimal medium containing 150 μM adenosine instead of 150 μM adenine.

[6] = biological target: T3, PUP1; test: Sensitivity of yeast MG887ura3- clones to caffeine-containing minimal medium; format: cell-based; set-up: PUP1 was expressed under control of the yeast ATPase promoter PMA1 in the vector pDR195; expressed in transfected cells; host or cells: Saccharomyces cerevisiae MG887ura3- (A5, A8) or DM734-284D (A7), construct pDR195PUP1; details: minimal medium plates, 6 days at 28° C.
Protocol: In order to check whether PUP1 mediates the transport of caffeine, the sensitivity of the Saccharomyces cerevisiae strain MG887ura3^− to caffeine-containing minimal medium was investigated. At certain concentrations caffeine is toxic to yeast (Bard et al., J. Bacteriol. 141, 999–1002), leading to slower growth or death of the yeast.
For this test various caffeine concentrations between 0 and 1.5% were put into minimal medium. Yeast clones grown in liquid minimal medium for 16 hours were spread out on the corresponding plates and incubated for 6 days at 28° C.

[7] = biological target: T1, PUP1 nuclear base transporter; test: cell-based
Protocol: as §1

T3 sequence (Q9FZ96 whole entry S63G): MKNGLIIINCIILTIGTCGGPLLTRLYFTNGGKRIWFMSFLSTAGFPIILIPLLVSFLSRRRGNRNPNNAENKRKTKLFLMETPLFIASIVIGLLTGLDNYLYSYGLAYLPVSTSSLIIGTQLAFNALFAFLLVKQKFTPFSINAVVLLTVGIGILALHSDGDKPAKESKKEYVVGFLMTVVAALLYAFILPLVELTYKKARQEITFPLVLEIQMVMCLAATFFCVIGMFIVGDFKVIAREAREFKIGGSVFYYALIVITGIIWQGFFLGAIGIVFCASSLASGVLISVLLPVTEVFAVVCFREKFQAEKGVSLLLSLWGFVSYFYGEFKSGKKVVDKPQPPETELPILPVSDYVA
T1 sequence (Q9FZ96 whole entry S63G): as above
T2 sequence (Q9FZ96 whole entry S63G): as above

## 2-isopentenyl adenine
[1]
  Transport of cytokinin by PUP1: can also transport cytokinins

## O=[N+]([O-])c1ccc(O)c([N+](=O)[O-])c1 [2,4-DNP, 2,4-dinitrophenol]
[2]; 100 μM inhibitor
  Relative adenine uptake: 54%
  Relative cytosine uptake: 58%
[2]
  Effect on PUP1-mediated adenine or cytosine uptake: block the uptake

## N#CC(C#N)=NNc1cccc(Cl)c1 [CCCP, carbonyl-cyanide-m-chlorphenylhydrazone]
[2]; 100 μM inhibitor
  Relative adenine uptake: 13%
  Relative cytosine uptake: 20%
[2]
  Effect on PUP1-mediated adenine or cytosine uptake: block the uptake

## Nc1cc[nH]c(=O)n1 [Cytosine, cytosine]
[3]
  End conc Cells: 2660 µM
[4]; cells versus medium, initial concentration medium 200 μM
  Enrichment factor: 18
[4]; initial concentration medium 200 μM, yeast strain MG887ura3-::pFL61-PUP1
  End conc. Medium: 145 µM
[4]; yeast strain MG887ura3-::pFL61-PUP1, FIG. 2, substrate 100 μM
  pH dependence of PUP1-mediated uptake: dependent on the pH level
[4]; yeast strain MG887ura3-::pFL61-PUP1, FIG. 3, glucose 1%
  Glucose dependence of PUP1-mediated uptake: glucose-dependent

## C(=NC1CCCCC1)=NC1CCCCC1 [DCCD]
[2]; 100 μM inhibitor
  Relative adenine uptake: 47%
  Relative cytosine uptake: 55%

## Nc1ncnc2c1ncn2[C@@H]1O[C@H](CO)[C@@H](O)[C@H]1O [adenosine]
[5]
  Growth of PUP1-expressing clone: Definite growth
  Growth of clone transformed with the vector pDR195 (control): no growth

## Cn1c(=O)c2c(ncn2C)n(C)c1=O [caffeine]
[6]
  Caffeine concentration from which PUP1-expressing yeasts displayed distinctly slowed-down growth compared to control and PUP2-expressing strain: ≥ 0.2%

## C[C@@H]1C[C@@H]([C@H](O)CC2CC(=O)NC(=O)C2)C(=O)[C@@H](C)C1 [cycloheximide]
[2]; 10 μg/ml inhibitor
  Relative adenine uptake: 95%
  Relative cytosine uptake: 97%

## CC/C(=C(/CC)c1ccc(O)cc1)c1ccc(O)cc1 [diethylstilboestrol]
[2]; 100 μM inhibitor
  Relative adenine uptake: 4%
  Relative cytosine uptake: 8%
[2]
  Effect on PUP1-mediated adenine or cytosine uptake: block the uptake

## c1coc(CNc2ncnc3[nH]cnc23)c1 [kinetin]
[7]
  Ki: 35 µM

## C/C(=C\CNc1ncnc2[nH]cnc12)CO [zeatin]
[7]
  Ki: 30 µM
[1]; 100 μM trans-zeatine, three independent experiments
  Increased uptake of radioactively labelled trans-zeatine, PUP1-expressing clone versus control strain (pDR195): 70 times
[1]
  Transport of cytokinin by PUP1: can also transport cytokinins
